Laboratory results taken from ChEMBL document CHEMBL4673334, “In Vivo Biological Evaluation of a Synthetic Royleanone Derivative as a Promising Fast-Acting Trypanocidal Agent by Inducing Mitochondrial-Dependent Necrosis” (J Nat Prod, 2020).
Activity calls are given as the source filed them. The calls are words filed in the database; no cut-off is given here.

Assays:
[1] = target: Superoxide dismutase [Cu-Zn] (Homo sapiens, UniProt P00441); assay: Inhibition of human erythrocytes CuZn-SOD by UV-VIS spectrophotometric method; parameters: species or system Erythrocyte
Superoxide dismutase [Cu-Zn], sequence (P00441 whole entry): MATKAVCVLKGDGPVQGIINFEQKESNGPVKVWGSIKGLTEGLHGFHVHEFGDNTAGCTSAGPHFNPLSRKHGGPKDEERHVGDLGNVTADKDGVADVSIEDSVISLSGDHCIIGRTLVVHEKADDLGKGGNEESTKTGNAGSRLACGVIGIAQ

Trypanosoma cruzi [2] = assay: Inhibition of mitochondrial membrane potential in Trypanosoma cruzi MHOM/Pe/2011/Arequipa(DTU V) epimastigote form at IC25 concentration after 72 hrs by Rho (FITC-A) staining based flow cytometric analysis; format: functional
Trypanosoma cruzi [3] = assay: Antitrypanosomal activity against Trypanosoma cruzi MHOM/Pe/2011/Arequipa(DTU V) epimastigote form assessed as disruption of L-alanine level at IC25 concentration incubated for 72 hrs by NMR spectrometric analysis; format: functional, organism-based
Trypanosoma cruzi [4] = assay: Antitrypanosomal activity against Trypanosoma cruzi MHOM/Pe/2011/Arequipa(DTU V) epimastigote form assessed as disruption of acetate level at IC25 concentration incubated for 72 hrs by NMR spectrometric analysis; format: functional, organism-based
Trypanosoma cruzi [5] = assay: Antitrypanosomal activity against Trypanosoma cruzi MHOM/Pe/2011/Arequipa(DTU V) epimastigote form assessed as disruption of ethanol end product level at IC25 concentration incubated for 72 hrs by NMR spectrometric analysis; format: functional, organism-based
Trypanosoma cruzi [6] = assay: Antitrypanosomal activity against Trypanosoma cruzi MHOM/Pe/2011/Arequipa(DTU V) epimastigote form assessed as disruption of glycerol level at IC25 concentration incubated for 72 hrs by NMR spectrometric analysis; format: functional, organism-based
[7] = Toxicity in BALB/c mouse infected with Trypanosomal Trypanosoma cruzi MHOM/Pe/2011/Arequipa(DTU V) assessed as effect on ALP level at 20 mg/kg, po administered for 5 days starting at 100 days post infection and measured after 2 days post treatment; format: organism-based; conditions: in vivo, 120 h, time 5 day
[8] = Toxicity in BALB/c mouse infected with Trypanosomal Trypanosoma cruzi MHOM/Pe/2011/Arequipa(DTU V) assessed as effect on total bilirubin level at 20 mg/kg, po administered for 5 days starting at 100 days post infection and measured after 2 days post treatment; format: organism-based; conditions: in vivo, 120 h, time 5 day
[9] = Toxicity in BALB/c mouse infected with Trypanosomal Trypanosoma cruzi MHOM/Pe/2011/Arequipa(DTU V) assessed as effect on ALT/GPT level at 20 mg/kg, po administered for 5 days starting at 100 days post infection and measured after 2 days post treatment; format: organism-based; conditions: in vivo, 120 h, time 5 day
[10] = Toxicity in BALB/c mouse infected with Trypanosomal Trypanosoma cruzi MHOM/Pe/2011/Arequipa(DTU V) assessed as effect on […] level at 20 mg/kg, po administered for 5 days starting at 100 days post infection and measured after 2 days post treatment; format: organism-based; conditions: in vivo, 120 h, time 5 day
[11] = Toxicity in BALB/c mouse infected with Trypanosomal Trypanosoma cruzi MHOM/Pe/2011/Arequipa(DTU V) assessed as effect on LDH level at 20 mg/kg, po administered for 5 days starting at 100 days post infection and measured after 2 days post treatment; format: organism-based; conditions: in vivo, 120 h, time 5 day
[12] = Toxicity in BALB/c mouse infected with Trypanosomal Trypanosoma cruzi MHOM/Pe/2011/Arequipa(DTU V) assessed as effect on CK-MB level at 20 mg/kg, po administered for 5 days starting at 100 days post infection and measured after 2 days post treatment; format: organism-based; conditions: in vivo, 120 h, time 5 day
[13] = Toxicity in BALB/c mouse infected with Trypanosomal Trypanosoma cruzi MHOM/Pe/2011/Arequipa(DTU V) assessed as effect on uric acid level at 20 mg/kg, po administered for 5 days starting at 100 days post infection and measured after 2 days post treatment; format: organism-based; conditions: in vivo, 120 h, time 5 day
[14] = Toxicity in BALB/c mouse infected with Trypanosomal Trypanosoma cruzi MHOM/Pe/2011/Arequipa(DTU V) assessed as effect on urea level at 20 mg/kg, po administered for 5 days starting at 100 days post infection and measured after 2 days post treatment; format: organism-based; conditions: in vivo, 120 h, time 5 day
[15] = Toxicity in BALB/c mouse infected with Trypanosomal Trypanosoma cruzi MHOM/Pe/2011/Arequipa(DTU V) assessed as effect on ALP level at 20 mg/kg, po administered for 5 days starting at 9 days post infection and measured after 2 days post treatment; format: organism-based; conditions: in vivo, 120 h, time 5 day
[16] = Toxicity in BALB/c mouse infected with Trypanosomal Trypanosoma cruzi MHOM/Pe/2011/Arequipa(DTU V) assessed as effect on ALT/GPT level at 20 mg/kg, po administered for 5 days starting at 9 days post infection and measured after 2 days post treatment; format: organism-based; conditions: in vivo, 120 h, time 5 day
[17] = Toxicity in BALB/c mouse infected with Trypanosomal Trypanosoma cruzi MHOM/Pe/2011/Arequipa(DTU V) assessed as effect on AST/GOT level at 20 mg/kg, po administered for 5 days starting at 9 days post infection and measured after 2 days post treatment; format: organism-based; conditions: in vivo, 120 h, time 5 day
Trypanosoma cruzi [18] = assay: Antitrypanosomal activity against Trypanosoma cruzi MHOM/Pe/2011/Arequipa(DTU V) amastigote form infected in BALB/c mouse assessed as parasite free organ tissue ratio at 20 mg/kg, po administered for 5 days starting at 100 days post infection and measured up to 145 days post infection by PCR analysis relative to control; format: functional; conditions: time 5 day
Trypanosoma cruzi [19] = assay: Antitrypanosomal activity against Trypanosoma cruzi MHOM/Pe/2011/Arequipa(DTU V) amastigote form infected in BALB/c mouse assessed as reactivation parasitaemia at 20 mg/kg, po administered for 5 days starting at 100 days post infection and measured up to 145 days post infection relative to control; format: functional
Trypanosoma cruzi [20] = assay: Antitrypanosomal activity against Trypanosoma cruzi MHOM/Pe/2011/Arequipa(DTU V) amastigote form infected in BALB/c mouse assessed as reactivation parasitaemia at 20 mg/kg, po administered for 5 days starting at 9 days post infection and measured up to 145 days post infection relative to control; format: functional
Trypanosoma cruzi [21] = assay: Antitrypanosomal activity against Trypanosoma cruzi MHOM/Pe/2011/Arequipa(DTU V) amastigote form infected in BALB/c mouse assessed as reduction in parasitaemia at 20 mg/kg, po for 5 days and measured after 55 days post infection; format: functional, organism-based; conditions: time 5.0 day
Trypanosoma cruzi [22] = assay: Antitrypanosomal activity against Trypanosoma cruzi MHOM/Pe/2011/Arequipa(DTU V) amastigote form infected in Vero cells assessed as parasite growth inhibition at 50 uM incubated for 72 hrs by Giemsa-staining based assay relative to control; format: functional
[23] = Selectivity index, ratio of IC50 for cytotoxicity against African green monkey Vero cells to IC50 for antitrypanosomal activity against Trypanosoma cruzi TINF/CH/1956/Tulahuen (DTU VI) blood stream trypomastigote form; format: toxicity, cell-based; conditions: read-out: Ratio IC50
[24] = Selectivity index, ratio of IC50 for cytotoxicity against African green monkey Vero cells to IC50 for antitrypanosomal activity against Trypanosoma cruzi TINF/CH/1956/Tulahuen (DTU VI) amastigote form infected in Vero cells; format: toxicity, cell-based; conditions: read-out: Ratio IC50
Vero = assay: Cytotoxicity against African green monkey Vero cells assessed as reduction in cell viability after 48 hrs by resazurin dye based assay; conditions: Chlorocebus sabaeus
Trypanosoma cruzi [25] = assay: Antitrypanosomal activity against Trypanosoma cruzi IRHOD/CO/2008/SN3 (DTU I) blood stream trypomastigote form assessed as parasite growth inhibition incubated for 24 hrs by resazurin dye based assay; format: functional, organism-based
Trypanosoma cruzi [26] = assay: Antitrypanosomal activity against Trypanosoma cruzi IRHOD/CO/2008/SN3 (DTU I) epimastigote form assessed as parasite growth inhibition incubated for 48 hrs by resazurin dye based assay; format: functional, organism-based
Trypanosoma cruzi [27] = assay: Antitrypanosomal activity against Trypanosoma cruzi IRHOD/CO/2008/SN3 (DTU I) amastigote form infected in Vero cells assessed as parasite growth inhibition incubated for 72 hrs by Giemsa-staining based assay; format: functional, organism-based

## CC(C)c1cc(C=O)c([C@@]2(C)CCCC(C)(C)C2=O)cc1O
[1]
  IC50: > 100 µM
Trypanosoma cruzi [2]
  inhibition: 41.8%
Trypanosoma cruzi [3]
  Activity: inactive
Trypanosoma cruzi [4]
  Activity: inactive
Trypanosoma cruzi [5]
  Activity: Active
Trypanosoma cruzi [6]
  Activity: Active
[7]
  Activity: Non-Toxic
[8]
  Activity: Non-Toxic
[9]
  Activity: Non-Toxic
[10]
  Activity: Non-Toxic
[11]
  Activity: Non-Toxic
[12]
  Activity: Non-Toxic
[13]
  Activity: Non-Toxic
[14]
  Activity: Non-Toxic
[15]
  Activity: Non-Toxic
[16]
  Activity: Non-Toxic
[17]
  Activity: Non-Toxic
Trypanosoma cruzi [18]
  Activity: 42.9%
Trypanosoma cruzi [19]; time 5.0 day
  Activity: Active
Trypanosoma cruzi [20]; time 5.0 day
  Activity: Active
Trypanosoma cruzi [21]
  Activity: Active
Trypanosoma cruzi [22]
  inhibition at 50 µM: 100%
[23]
  selectivity ratio: > 40
[24]
  selectivity ratio: > 40
Vero
  IC50: 624 µM
Trypanosoma cruzi [25]
  IC50: 8.7 µM
Trypanosoma cruzi [26]
  IC50: 12.5 µM
Trypanosoma cruzi [27]
  IC50: 7.2 µM

## COC(=O)[C@]1(C)CCC[C@]2(C)C3=C(C=C[C@@H]12)C(=O)C(C(C)C)=CC3=O
[1]
  IC50: > 100 µM
Trypanosoma cruzi [2]
  inhibition: 50%
Trypanosoma cruzi [3]
  Activity: inactive
Trypanosoma cruzi [4]
  Activity: inactive
Trypanosoma cruzi [5]
  Activity: Active
Trypanosoma cruzi [6]
  Activity: Active
[7]
  Activity: Non-Toxic
[8]
  Activity: Non-Toxic
[9]
  Activity: Non-Toxic
[10]
  Activity: Non-Toxic
[11]
  Activity: Non-Toxic
[12]
  Activity: Non-Toxic
[13]
  Activity: Non-Toxic
[14]
  Activity: Non-Toxic
[15]
  Activity: Non-Toxic
[16]
  Activity: Non-Toxic
[17]
  Activity: Non-Toxic
Trypanosoma cruzi [18]
  Activity: 57.1%
Trypanosoma cruzi [19]; time 5 day
  Activity: 52%
Trypanosoma cruzi [20]; time 5 day
  Activity: 52%
Trypanosoma cruzi [21]
  Activity: Active
Trypanosoma cruzi [22]
  inhibition at 50 µM: 100%
[23]
  selectivity ratio: > 40
[24]
  selectivity ratio: > 40
Vero
  IC50: 72.2 µM
Trypanosoma cruzi [25]
  IC50: 1.8 µM
Trypanosoma cruzi [26]
  IC50: 1.6 µM
Trypanosoma cruzi [27]
  IC50: 5.4 µM
